What was measured:
[1] = system: RBCs from donors with homozygous SCD; experiment: Oxygen-independent sickle inhibition in SS blood suspensions under anoxia (100% nitrogen); assay type: cell-based, human; conditions: anoxia
Experimental: To establish oxygen-independent sickle inhibition, the incubation chamber was subsequently opened and exposed to room air for 15 minutes to ensure complete re-oxygenation and reversal of the sickled cells to normal round cells. Reversal was confirmed by microscopy. The incubation chamber was then closed, and the assay was repeated with incubation in 100% nitrogen gas for 1 hour (for screening), or up to 2.5 h (for time-course studies), with collection and fixation of blood aliquots at defined intervals. Aliquot samples were again subjected to microscopic morphological analysis of bright field images to identify the proportion of sickled and non-sickled cells, and sickle inhibition calculated.

[2] = ADME / bioavailability assessment; conditions: in vivo
[3] = system: sickle red blood cells; experiment: Antisickling study with human sickle blood under 2.5% oxygen; assay type: cell-based; conditions: Homo sapiens, Erythrocyte, sickle RBCs, 2.5% oxygen, read-out: sickling inhibition
Experimental: Blood suspensions from subjects with homozygous SCD (resuspended in Hemox™ buffer to a final hematocrit 20%) were incubated under air in the absence or presence of the compounds (0.5 mM, 1 mM and 2 mM) at 37° C. for 1 h to ensure that binding had attained equilibrium. The suspensions were then incubated under hypoxic conditions (2.5% oxygen/97.5% nitrogen) at 37° C. for 1 h. Aliquot samples were fixed with 2% glutaraldehyde solution without exposure to air, and then subjected to microscopic morphological analysis of bright field images (at 40× magnification) of single layer cells on an Olympus BX40 microscope fitted with an Infinity Lite B camera (Olympus), and the coupled Image Capture software. The residual samples were washed in phosphate-buffer saline, and hemolyzed in hypotonic lysis buffer for subsequent Hb-modification and oxygen equilibrium analyses.
The studies described above were conducted using normal whole blood. Next, we investigated whether the improvement in Hb oxygen affinity and the compounds sustained activity also translated to similar effects in SS blood from SCD patients. […] At 1 mM, PP8 and PP9 inhibited nearly 100% of sickling, while PP2, PP6, PP14 inhibited sickling by more than 70%. […] It is clear that the modifications of the present compounds has led to significant improvement in antisickling activity.

[4] = molecular target: T1, intracellular Hb (Mus musculus, UniProt P01942); experiment: In vivo modification of intracellular Hb in wild-type mice; set-up: species or system C57BL/6 mice; conditions: IP 150 mg/kg, 30% PEG300, 6 h
T1 construct: from tissue; host or cells: blood (red cell lysates) of dosed C57BL/6 mice
T1 sequence (P01942 2-142 limits assumed): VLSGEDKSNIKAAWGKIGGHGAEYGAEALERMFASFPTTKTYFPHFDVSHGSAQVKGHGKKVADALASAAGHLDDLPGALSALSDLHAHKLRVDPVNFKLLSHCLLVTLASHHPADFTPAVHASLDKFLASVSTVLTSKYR
T1 sequence (P02088 2-147 partner limits assumed): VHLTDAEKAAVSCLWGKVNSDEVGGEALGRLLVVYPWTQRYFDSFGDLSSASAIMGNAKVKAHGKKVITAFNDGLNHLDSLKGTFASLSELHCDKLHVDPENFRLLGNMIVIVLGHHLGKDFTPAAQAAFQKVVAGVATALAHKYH
Experimental: We tested in vivo pharmacologic (pharmacodynamics) effects of select PP compounds in C57BL/6 mice. The animals were treated with a single intraperitoneal (IP) (150 mg/kg body weight) dose of PP6, PP10, PP14, and TD7, which were formulated with 30% PEG300. Blood samples were obtained prior to treatment (0) and 1, 3 and 6 h post-treatment, via submandibular bleeding, and subjected to hemolysis using standard methods. Clarified lysates, free of cell debris and red blood cell ghosts were analyzed by cation-exchange HPLC to determine the levels of drug-modified hemoglobin (adducts); and to conduct oxygen equilibrium studies to determine degrees of shift in p50 values using methodologies described earlier for in vitro studies on human samples. In a subsequent follow-up experiment, a new excipient obtained from Catalent Pharma Solutions was also used to formulate PP14 and used for a single intraperitoneal (IP) and oral (150 mg/kg body weight) dose. Blood samples were obtained prior to treatment (0) and 1, 3 or 5 h post-treatment, via submandibular bleeding, and used to determine the levels of drug-modified hemoglobin (adducts); and to conduct oxygen equilibrium studies to determine degrees of shift in p50 values as described above.

[5] = molecular target: T2, Hb (Homo sapiens, UniProt P69905); experiment: Oxygen equilibrium curve (OEC) studies with normal whole blood; assay type: cell-based; set-up: Hemoglobin modification, studies using non-sickling AA blood; from tissue; host or cells: non-sickling (AA) human blood, red blood cells; conditions: normal whole blood, 0.5, 1, 2 mM
Experimental: Oxygen equilibrium curve (OEC) studies to determine the effect of the compounds on Hb affinity for oxygen were conducted following standard procedure. Whole blood (30% hematocrit) was incubated in the absence or presence of compounds (0.5 mM, 1.0 mM and 2.0 mM) solubilized in DMSO. […] After equilibration, the sample was removed via syringe and aspirated into an ABL 700 series table top automated blood gas analyzer (Radiometer America, Inc., Westlake, OH) to determine total hemoglobin (tHb), hematocrit (Hct), pH, pCO2, partial pressure of oxygen (pO2), and the Hb-O2 saturation (sO2) values. The measured values of pO2 and sO2 at each oxygen saturation level were then subjected to nonlinear regression analysis using the software Scientist (Micromath, Salt Lake City UT) with the following equation: […]
Aromatic aldehydes are known to prevent hypoxia-induced Hb S polymerization by increasing the Hb affinity for oxygen. We therefore tested the PP compounds in a dose-dependent manner (0.5, 1, 2 mM) for their effect on Hb oxygen binding property. […] These findings confirmed that the potent in vitro activity previously seen in TD7 was at least conserved in the novel PP compounds.
Target sequence in this assay (P69905 2-142 limits assumed): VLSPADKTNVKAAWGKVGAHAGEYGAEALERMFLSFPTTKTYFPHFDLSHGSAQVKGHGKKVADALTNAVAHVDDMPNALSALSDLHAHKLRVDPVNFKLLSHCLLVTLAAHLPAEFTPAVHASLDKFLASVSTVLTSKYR
Target sequence in this assay (P68871 2-147 partner limits assumed): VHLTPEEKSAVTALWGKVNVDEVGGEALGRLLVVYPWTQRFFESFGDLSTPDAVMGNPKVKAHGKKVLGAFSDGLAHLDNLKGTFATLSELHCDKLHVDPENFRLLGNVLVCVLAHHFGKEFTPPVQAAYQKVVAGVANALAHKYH

[6] = molecular target: T2, Hb; experiment: Time-dependent Hb-compound adduct formation (Hb modification) in normal whole blood; assay type: binding; set-up: Hemoglobin modification, studies using non-sickling AA blood; from tissue; host or cells: non-sickling (AA) human blood, red blood cells; conditions: 2 mM, normal adult blood, hematocrit 30%, 37° C.
Target sequence in this assay (P69905 2-142 limits assumed): as the sequence (P69905 2-142 limits assumed) above
Target sequence in this assay (P68871 2-147 partner limits assumed): as the sequence (P68871 2-147 partner limits assumed) above

[7] = molecular target: T2, Hb; experiment: Drug partitioning studies, fixed and unfixed Hb adducts in non-sickling AA blood; assay type: cell-based; set-up: Hemoglobin modification, studies using non-sickling AA blood; from tissue; host or cells: non-sickling (AA) human blood, red blood cells; conditions: 2 mM
Summary of the method: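 Non-sickling blood was incubated with test molecules and lysed either in water (unfixed) or in 50 mM sodium borohydride (fixed). Hb adducts were quantified by cation-exchange HPLC as a fraction of total Hb. The partitioning ratio is fixed over unfixed modification and reflects intracellular Hb binding after RBC membrane permeation.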
Target sequence in this assay (P69905 2-142 limits assumed): as the sequence (P69905 2-142 limits assumed) above
Target sequence in this assay (P68871 2-147 partner limits assumed): as the sequence (P68871 2-147 partner limits assumed) above

[8] = molecular target: T2, Hb; experiment: Hb modification (drug-adduct formation) in SS blood suspensions by cation-exchange HPLC; assay type: binding; set-up: Blood suspensions from subjects with homozygous SCD; from tissue; host or cells: blood suspensions (20% hematocrit) from donors with homozygous SCD; lysates of the treated red cells; conditions: 2 mM, 4 biological replicates
Summary of the method: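 Homozygous SCD blood at 20% hematocrit in Hemox buffer with glucose and BSA was incubated with compound (0-2 mM) 1 h at 37° C in air, then up to 2 h hypoxia (2.5% O2). Lysates, with or without 50 mM sodium borohydride reduction, were analysed by weak cation-exchange HPLC at A410 nm for Hb-drug adducts.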
Target sequence in this assay (P69905 2-142): as the sequence (P69905 2-142 limits assumed) above
Target sequence in this assay (P68871 with tags, fused parts or gaps E7V partner): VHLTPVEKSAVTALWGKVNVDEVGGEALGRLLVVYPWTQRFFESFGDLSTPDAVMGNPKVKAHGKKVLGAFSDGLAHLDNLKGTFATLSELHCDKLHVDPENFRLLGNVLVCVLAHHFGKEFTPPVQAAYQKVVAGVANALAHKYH

Compound | polymer destabilizing effect / sickle inhibition in anoxia (in words) [1] | bioavailability [2] | inhibition at 500 µM ([3]; 0.5 mM) | inhibition at 1000 µM ([3]; 1 mM) | modified Hb [4] | effect on Hb oxygen binding property (OEC) [5] | loss of Hb modification activity at 24 hours [6] | Fixed Adducts (%) ([7]; 6 biological replicates) | Unfixed Adduct (%) ([7]; 6 biological replicates) | Partitioning Ratio (%) ([7]; fixed relative to unfixed adducts) | Hb Modification (%) [8]
O=Cc1c(O)cccc1OCc1ccccc1 [Reference A, 2-(benzyloxy)-6-hydroxybenzaldehyde, reference compound] | exhibits potent polymer destabilizing effects | not bioavailable | – | – | – | – | – | – | – | – | –
COc1ccc(OCc2cccc(CO)n2)c(C=O)c1 [TD-7, reference compound] | – | – | 26% | 47% | 1.5±0.3% | relatively similar potency as most of the best PP compounds | 45% | 80.9 ± 2.5% | 73.5 ± 1.5% | 103.7 ± 7.5% | 72.5%

Source: US20240109843A1, “BENZALDEHYDE COMPOUNDS WITH DIRECT POLYMER DESTABILIZING EFFECTS TO TREAT SICKLE CELL DISEASE” (VIRGINIA COMMONWEALTH UNIVERSITY, priority 2018, published 2024)
